How the values were obtained:
JAK2/JAK1 = assay: JAK enzyme activity inhibition, JAK2 versus JAK1 selectivity; type: biochemical; conditions: ratio of JAK2 IC50 to JAK1 IC50
Protocol: (§1) The tested compounds were dissolved in DMSO to provide a 10 mM mother solution. The compound was diluted to 1 mM in DMSO before use, and was gradient diluted by 3 folds to altogether 11 concentrations. After the buffer was prepared, JAK1, JAK2, JAK3 and the substrate were mixed with pre-diluted compounds in different concentrations, and allowed to stand at room temperature for 30 minutes, while each concentration was duplicated for twice. ATP was added and reacted at room temperature for 90 minutes, and antibody was added for detection after the reaction was completed.

mouse spleen cells [1] = assay: Mitogen ConA-induced mouse spleen cell proliferation (CCK8); type: cell-based; conditions: for EC50: mouse spleen cells, ConA as stimulus, read-out: Inhibition activity (EC50), ConA induction; for concentration at which inhibition of lymphocyte proliferation began: ConA as the stimuli; for inhibition to the non-specific immunosuppression induced by mitogen: in words, compared with specific immunity
Protocol: […] 5*10^5/well, with or without 50 uL of ConA at a concentration of 2.5 ug/uL as well as 50 uL inhibitors at a different concentration, while the negative control wells were supplemented with 50 uL of complete 1640 medium. After 48 hours of culture, the cell culture supernatant was collected for 100 uL/well for subsequent ELISA, and 10 uL/well of CCK8 reagent was added to detect the cell proliferation. The proliferation of immune cells was microscopic observed in each group.
[…] mouse spleen cells were adjusted to a cell concentration of 5*10^6/mL in complete 1640 medium, […], i.e., 5*10^5/well, […], as well as 50 uL of different concentrations of inhibitor (compound 1-6) while negative control well was supplemented with 50 uL of complete 1640 medium. […] The proliferation of immune cells was microscopic observed in each group, and the EC50 value was calculated.

JAK3/JAK1 = assay: JAK enzyme activity inhibition, JAK3 versus JAK1 selectivity; type: biochemical; conditions: ratio of JAK3 IC50 to JAK1 IC50
Protocol: as §1

mouse spleen cells [2] = assay: CD3/CD28 antibody-induced mouse spleen cell proliferation (CCK8); type: cell-based; conditions: for EC50: mouse spleen cells, CD3/CD28 antibodies as stimulus, read-out: Inhibition activity (EC50), CD3/CD28; for concentration at which inhibition of lymphocyte proliferation began: Anti-CD3/CD28 as the stimuli

| Compound | Selectivity fold JAK2/JAK1 IC50 ratio (JAK2/JAK1) | EC50 (mouse spleen cells [1]) | Selectivity fold JAK3/JAK1 IC50 ratio (JAK3/JAK1) | EC50 (mouse spleen cells [2]) | concentration at which inhibition of lymphocyte proliferation began (mouse spleen cells [1]) | concentration at which inhibition of lymphocyte proliferation began (mouse spleen cells [2]) | inhibition to the non-specific immunosuppression induced by mitogen (mouse spleen cells [1]) |
| --- | --- | --- | --- | --- | --- | --- | --- |
| 2-cyano-3-hydroxy-2-butene-{4-[methyl-(7H-pyrrolo[2,3-d]pyrimidin-4-yl)-amino]-cyclohexyl]-amide [Compound 5] | >10 fold | > 200 µM | >10 fold | > 100 µM |  |  |  |
| 2-cyano-3-hydroxy-2-butene-{4-[methyl-(7H-pyrrolo[2,3-d]pyrimidin-4-yl)-amino]-phenyl]-amide [Compound 4] | 7 fold | 61.2 µM | 5 fold | 30.9 µM | 100 µM | 50 µM |  |
| 5-methyl-isoxazole-{4-methyl-(7H-pyrrolo[2,3-d]pyrimidin-4-yl)-amino]-cyclohex yl}-amine [Compound 3] | >10 fold | 90.7 µM | >10 fold | 65.7 µM | 10 µM | 10 µM | weak |
| CN(c1ccc(N)cc1)c1ncnc2[nH]ccc12 [Compound 1, N-Methyl-N-(7H-pyrrolo[2,3-d]pyrimidin-4-yl)phenyl-1,4-diamine] | 7 fold | 53.9 µM | 2 fold | 22.7 µM | 10 µM | 10 µM | weak |
| Cc1oncc1C(=O)Nc1ccc(N(C)c2ncnc3[nH]ccc23)cc1 [Compound 2] | >10 fold | 40.3 µM | >10 fold | 15.1 µM | 10 µM | 50 µM |  |
| C/C(O)=C(\C#N)C(=O)Nc1ccc(C(F)(F)F)cc1 [Compound A771726, A771726, reference compound] |  | > 200 µM |  | > 200 µM |  |  |  |
| C[C@@H]1CCN(C(=O)CC#N)C[C@@H]1N(C)c1ncnc2[nH]ccc12 [Tofatinib, reference compound] | 2 fold |  | <1 fold |  |  |  |  |
